The values that follow are results of earlier work, collected in patent US20030215406A1, “Cosmetic or dermatological preparations containing aminogaunidine, derivatives thereof or structural analogs thereof” (Beiersdorf AG, priority 2000, published 2003).

Regarding `N=C(N)NN` [Aminoguanidine], the solubility in alcohol result (solvent: alcohol) is listed as “soluble”. Besides, the solubility in ether result (solvent: ether) is “insoluble”. The solubility in water result (solvent: water) is listed as “soluble”.
